Laboratory results published in ChEMBL document CHEMBL1201862, “PubChem BioAssay data set” (2004).
Activity calls are given as the source filed them. For most assays here, no stated cut-off is given here; in the data, actives have a measured EC50 and inactives only a lower limit.

What was measured:
[1] = tested on: Streptococcus sp. 'group A'; experiment: growth inhibition of control SK(-) GAS strain, dose response, counter-screen for streptokinase expression inhibitor project, luminescence, kanamycin, BacTiterGlo, confirmation (AID 1900); format: functional, organism-based
[2] = target: T1, Zinc finger protein mex-5 (Caenorhabditis elegans, UniProt Q9XUB2); experiment: MEX-5/TCR-2 RNA interaction inhibitors, dose response, biochemical, C. elegans, fluorescence polarization (AID 1960)
T1 sequence (Q9XUB2 whole entry): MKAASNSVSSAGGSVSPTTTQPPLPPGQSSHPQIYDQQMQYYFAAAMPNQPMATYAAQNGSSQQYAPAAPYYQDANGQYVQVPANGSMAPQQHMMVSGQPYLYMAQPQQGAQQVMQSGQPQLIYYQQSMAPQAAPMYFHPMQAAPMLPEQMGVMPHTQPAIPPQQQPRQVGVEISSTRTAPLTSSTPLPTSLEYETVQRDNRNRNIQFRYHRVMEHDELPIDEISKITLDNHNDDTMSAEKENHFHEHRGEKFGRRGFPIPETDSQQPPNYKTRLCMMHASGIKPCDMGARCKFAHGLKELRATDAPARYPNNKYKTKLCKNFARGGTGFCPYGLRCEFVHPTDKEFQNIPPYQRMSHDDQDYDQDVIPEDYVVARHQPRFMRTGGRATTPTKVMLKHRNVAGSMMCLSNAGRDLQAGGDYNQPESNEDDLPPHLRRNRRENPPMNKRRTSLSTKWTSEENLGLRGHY

[3] = inhibitors of SNCA 5'UTR-driven reporter translation, confirmation, H4 neuroglioma cells, luminescence (AID 1988); format: functional, cell-based
[4] = target: G-protein coupled receptor 55 (Homo sapiens, UniProt Q9Y2T6); experiment: GPR55 antagonists blocking LPI-driven arrestin recruitment, primary screen, imaging, U2OS, beta-arrestin-GFP, LPI agonist (AID 2013); format: functional;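 further: antagonist potency measured as reduced agonist-driven arrestin aggregation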
Chain of G-protein coupled receptor 55 (Q9Y2T6 whole entry): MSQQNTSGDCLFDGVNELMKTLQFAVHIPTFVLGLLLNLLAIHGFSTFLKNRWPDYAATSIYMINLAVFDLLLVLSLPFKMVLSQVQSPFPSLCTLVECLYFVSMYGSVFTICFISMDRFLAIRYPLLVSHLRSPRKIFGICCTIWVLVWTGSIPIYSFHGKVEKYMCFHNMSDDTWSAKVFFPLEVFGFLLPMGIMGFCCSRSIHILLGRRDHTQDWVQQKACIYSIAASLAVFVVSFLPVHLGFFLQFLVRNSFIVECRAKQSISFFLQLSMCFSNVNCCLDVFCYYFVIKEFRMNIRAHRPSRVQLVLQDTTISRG

[5] = inhibitors of intracellular T. cruzi replication, confirmation, NIH3T3 host cells, beta-gal luminescence (AID 2044); format: functional, cell-based;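 further: intracellular parasites grown in NIH/3T3 mouse fibroblasts as host cells; luminescent beta-galactosidase reporter signal from transgenic T. cruzi replicating inside host cells; inhibitors lower the luminescence signal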
[6] = cytotoxicity toward NIH3T3 fibroblasts, dose response, counter-screen, cell-based, ATP luminescence, mouse fibroblasts (AID 2010); format: functional;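 further: cells exposed to compound for about 90 hours before reading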
[7] = target: DNA dC->dU-editing enzyme APOBEC-3A (Homo sapiens, UniProt P31941); experiment: APOBEC3A DNA deaminase inhibitors, dose response, biochemical (AID 504722); format: functional
Chain of DNA dC->dU-editing enzyme APOBEC-3A (P31941 whole entry): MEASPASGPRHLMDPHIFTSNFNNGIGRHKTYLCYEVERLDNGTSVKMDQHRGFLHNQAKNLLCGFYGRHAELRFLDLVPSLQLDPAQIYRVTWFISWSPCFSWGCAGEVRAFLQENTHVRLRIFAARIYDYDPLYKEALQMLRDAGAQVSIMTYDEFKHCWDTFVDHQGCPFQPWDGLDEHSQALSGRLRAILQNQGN

[8] = target: DNA dC->dU-editing enzyme APOBEC-3G (Homo sapiens, UniProt Q9HC16); experiment: Dose Response confirmation of small molecule APOBEC3G DNA Deaminase Inhibitors via a fluorescence-based single-stranded DNA deaminase assay. [Related pubchem assays (depositor defined):AID493012, AID493028]; format: functional
Chain of DNA dC->dU-editing enzyme APOBEC-3G (Q9HC16 whole entry): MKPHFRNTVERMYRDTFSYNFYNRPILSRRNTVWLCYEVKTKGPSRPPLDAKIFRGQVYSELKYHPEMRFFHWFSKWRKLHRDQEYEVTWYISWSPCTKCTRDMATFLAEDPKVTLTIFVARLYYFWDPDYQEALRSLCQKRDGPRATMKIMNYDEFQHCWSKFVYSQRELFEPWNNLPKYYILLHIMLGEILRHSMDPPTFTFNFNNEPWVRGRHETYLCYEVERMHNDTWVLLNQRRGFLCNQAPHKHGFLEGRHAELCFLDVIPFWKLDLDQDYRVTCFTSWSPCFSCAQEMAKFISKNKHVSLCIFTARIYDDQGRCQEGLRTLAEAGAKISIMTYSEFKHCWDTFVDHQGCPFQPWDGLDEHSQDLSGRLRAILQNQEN

[9] = target: T2, Replicative DNA helicase DnaB (Mycobacterium tuberculosis, UniProt P9WMR3); experiment: DnaB intein splicing inhibitors, dose response, biochemical, cell-free fluorescence (AID 449749); format: functional
T2 sequence (P9WMR3 whole entry): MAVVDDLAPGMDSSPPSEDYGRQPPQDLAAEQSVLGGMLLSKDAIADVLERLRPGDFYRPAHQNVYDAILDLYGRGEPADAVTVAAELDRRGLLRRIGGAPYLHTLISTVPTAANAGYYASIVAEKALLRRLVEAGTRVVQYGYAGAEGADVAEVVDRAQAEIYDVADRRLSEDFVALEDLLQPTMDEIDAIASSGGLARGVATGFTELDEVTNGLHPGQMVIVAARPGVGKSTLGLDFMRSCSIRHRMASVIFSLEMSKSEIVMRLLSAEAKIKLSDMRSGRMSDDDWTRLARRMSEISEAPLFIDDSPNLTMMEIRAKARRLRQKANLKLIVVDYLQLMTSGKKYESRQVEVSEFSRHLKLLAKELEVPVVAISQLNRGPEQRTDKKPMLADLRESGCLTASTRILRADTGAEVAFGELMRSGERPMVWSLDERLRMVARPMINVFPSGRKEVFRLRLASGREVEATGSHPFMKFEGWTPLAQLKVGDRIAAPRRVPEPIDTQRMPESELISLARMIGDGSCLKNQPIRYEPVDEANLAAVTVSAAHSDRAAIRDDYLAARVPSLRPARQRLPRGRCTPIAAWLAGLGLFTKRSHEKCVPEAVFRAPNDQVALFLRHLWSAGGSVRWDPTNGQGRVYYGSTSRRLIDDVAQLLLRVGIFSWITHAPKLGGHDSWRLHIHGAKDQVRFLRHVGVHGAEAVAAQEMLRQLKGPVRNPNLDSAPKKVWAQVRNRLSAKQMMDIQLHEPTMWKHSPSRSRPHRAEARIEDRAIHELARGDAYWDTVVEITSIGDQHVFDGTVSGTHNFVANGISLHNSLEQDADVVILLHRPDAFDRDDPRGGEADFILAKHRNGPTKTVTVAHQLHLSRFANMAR

SMILES | EC50 [1] | EC50 [2] | EC50 [3] | IC50 [4] | EC50 [5] | EC50 [6] | IC50 [7] | IC50 [8] | AC50 [9]
CC(=O)N(C1=C(Cl)C(=O)c2ccccc2C1=O)C1CCCCC1 | 6.92 µM (active) | 8.18 µM (active) | > 120 µM (not active) | 4.55 µM (active) | 1.83 µM (active) | 3.26 µM (active) | > 100 µM (inactive) | 7.68 µM (active) | 2.98 µM (active)
Oc1ccc(-c2cn3c(n2)SCC3)cc1O | – | 1.77 µM (active) | – | – | – | – | > 100 µM (inactive) | 12.6 µM (active) | –
Cc1ccc(NC2=C/C(=N\S(=O)(=O)c3cccs3)c3ccccc3C2=O)c(C)c1 | 2.99 µM (active) | – | 8.43 µM (inconclusive) | 1.87 µM (active) | 0.719 µM (active) | < 6 µM (inconclusive) | – | – | 0.339 µM (active)
